{
  "source": "patent US8865208B2",
  "about": "“Vesicle useful for external preparation for skin, and external preparation for skin comprising the vesicle” (Pola Chemical Industries Inc., priority 2007, dated 2014)",
  "tested_on": "skin",
  "assay": "Test Example 1: transepidermal water loss (TEWL) of skin pretreated with sodium lauryl sulfate, Tewameter",
  "type": "in vivo",
  "details": "conclusion drawn from Table 3",
  "protocol": "Vesicle dispersion liquid 1, Vesicle dispersion liquid 2, Comparative Example 4, Comparative Example 5, and Comparative Example 6 were each used as a sample. The skin was previously applied and blocked with 1% sodium lauryl sulfate aqueous solution for 24 hours to enhance transepidermal water loss (TEWL), and was applied and blocked with the sample for 6 hours, and 30 minutes after removing a bandage, TEWL was determined using Tewameter (manufactured by Integral Corporation). It should be noted that water was applied as a control. […] This is inferably because the dermis-reaching property of Palmaria extract 1, which is an active ingredient, has been enhanced owing to the vesicle.",
  "data": [
    {"compound": "CCCCCCCCCCCC(=O)N[C@@H](CCC(=O)NCCCC[C@H](NC(=O)CC[C@H](NC(=O)CCCCCCCCCCC)C(=O)O)C(=O)O)C(=O)O", "note": "[Pellicer L-30, α,ε-bis (γ-N-lauroylglutamyl)lysine]", "values": [
      {"measurement": "TEWL-suppressing effect (in words)", "value": "had a function of suppressing TEWL"}
    ]}
  ]
}
